Results reported in patent US12435108B2, “Teixobactin analogue and use thereof” (SUNSHINE LAKE PHARMA CO., LTD., priority 2019, dated 2025).

Assays:
MRSA (SA88) = conditions: agar plate two-fold dilution, CLSI, 35 °C, 18 h
Experimental: (§1) For the determination of the minimum inhibitory concentration (MIC), according to the CLSI standard, a two-fold dilution method with a plate and a Denlay multi-point inoculator were used to conduct the drug sensitivity test. The test bacteria were enriched with MH broth or brain heart infusion. The drug solution was diluted two-fold with MH broth to prepare various required concentrations, and appropriate amounts were added to the plates respectively. After the MH agar medium was melted, it was quantitatively poured into the plates containing the drug solution and mixed uniformly. The final concentrations of the samples were: 128, 64, 32, 16, 8, 4, 2, 1, 0.5, 0.25, 0.125, 0.063, 0.031, 0.016, 0.008, 0.004 μg/mL, respectively. The test bacteria were inoculated (inoculation amount was 10^4 cfu/point) and then incubated at constant temperature of 35 □. The results were observed after 18 h. The minimum concentration of the drug contained in the sterile growth plate was the minimum inhibitory concentration (MIC). Selection of strain types: MRSA (SA86 and SA88), MSSA (ATCC29213), Enterococcus (ET6) and Streptococcus faecalis (SF).

[1] = test system: Streptococcus faecalis (SF); conditions: agar plate two-fold dilution, CLSI, 35 °C, 18 h
Experimental: as §1

MSSA (ATCC29213) = conditions: Test Method 1: agar plate two-fold dilution, CLSI, 35 °C, 18 h
Experimental: as §1

Enterococcus (ET6) = conditions: agar plate two-fold dilution, CLSI, 35 °C, 18 h
Experimental: as §1

MRSA (SA86) = conditions: agar plate two-fold dilution, CLSI, 35 °C, 18 h
Experimental: as §1

[2] = test system: Mycobacterium smegmatis mc2155; assay: MIC, 96-well dilution in 7H9 medium (Test Method 3); type: cell-based; conditions: 96-well plate, 35±2 °C, 48 hours, highest concentration 64 μg/mL

| SMILES | In vitro antibacterial activity MIC, MRSA SA88 (MRSA (SA88)) [µg/mL] | In vitro antibacterial activity MIC, Streptococcus faecalis(SF) [1] [µg/mL] | In vitro antibacterial activity MIC, MSSA(ATCC29213) (MSSA (ATCC29213)) [µg/mL] | In vitro antibacterial activity MIC, Enterococcus (ET6) (Enterococcus (ET6)) [µg/mL] | In vitro antibacterial activity MIC, MRSA SA86 (MRSA (SA86)) [µg/mL] | In vitro antibacterial activity MIC, Mycobacterium smegmatis mc2155 [2] [µg/mL] |
| --- | --- | --- | --- | --- | --- | --- |
| CC[C@H](C)[C@H](NC(=O)[C@@H](Cc1ccccc1)NC)C(=O)N[C@@H](CO)C(=O)N[C@H](CCC(N)=O)C(=O)N[C@@H](C(=O)N[C@H](C(=O)N[C@@H](CO)C(=O)N[C@H]1C(=O)N[C@@H](C)C(=O)N[C@@]2(C[C@H]2CCN)C(=O)N[C@@H]([C@@H](C)CC)C(=O)O[C@H]1C)[C@@H](C)CC)[C@@H](C)CC.O=C(O)C(F)(F)F [Example 10] | 4 | 2 | 2 | 2 | 4 | – |
| C=C[C@@H]1C[C@@]12NC(=O)[C@H](C)NC(=O)[C@H](NC(=O)[C@H](CO)NC(=O)[C@@H](NC(=O)[C@H](NC(=O)[C@@H](CCC(N)=O)NC(=O)[C@H](CO)NC(=O)[C@@H](NC(=O)[C@@H](Cc1ccccc1)NC)[C@@H](C)CC)[C@@H](C)CC)[C@@H](C)CC)[C@H](C)NC(=O)[C@H]([C@@H](C)CC)NC2=O.O=C(O)C(F)(F)F [Example 4] | 4 | 8 | 4 | 8 | 8 | – |
| CC[C@H](C)[C@H](NC(=O)[C@@H](Cc1ccccc1)NC)C(=O)N[C@@H](CO)C(=O)N[C@H](CCC(N)=O)C(=O)N[C@@H](C(=O)N[C@H](C(=O)N[C@@H](CO)C(=O)N[C@H]1C(=O)N[C@@H](C)C(=O)NC2(CCCCC2)C(=O)N[C@@H]([C@@H](C)CC)C(=O)O[C@H]1C)[C@@H](C)CC)[C@@H](C)CC.O=C(O)C(F)(F)F [Example 8] | 4 | – | 8 | – | 8 | – |
| CC[C@H](C)[C@H](NC(=O)[C@@H](Cc1ccccc1)NC)C(=O)N[C@@H](CO)C(=O)N[C@H](CCC(N)=O)C(=O)N[C@@H](C(=O)N[C@H](C(=O)N[C@@H](CO)C(=O)N[C@H]1C(=O)N[C@@H](C)C(=O)N[C@@]2(C[C@H]2CC(F)F)C(=O)N[C@@H]([C@@H](C)CC)C(=O)O[C@H]1C)[C@@H](C)CC)[C@@H](C)CC.O=C(O)C(F)(F)F [Example 1] | – | – | 2 | 4 | 4 | 8 |
| CC[C@H](C)[C@H](NC(=O)[C@@H](Cc1ccccc1)NC)C(=O)N[C@@H](CO)C(=O)N[C@H](CCC(N)=O)C(=O)N[C@@H](C(=O)N[C@H](C(=O)N[C@@H](CO)C(=O)N[C@H]1C(=O)N[C@@H](C)C(=O)N[C@]2(C[C@@H]2CC(F)F)C(=O)N[C@@H]([C@@H](C)CC)C(=O)N[C@H]1C)[C@@H](C)CC)[C@@H](C)CC.O=C(O)C(F)(F)F [Example 2] | 2 | 8 | 4 | 4 | 4 | – |
| CC[C@H](C)[C@H](NC(=O)[C@@H](Cc1ccccc1)NC)C(=O)N[C@@H](CO)C(=O)N[C@H](CCC(N)=O)C(=O)N[C@@H](C(=O)N[C@H](C(=O)N[C@@H](CO)C(=O)N[C@H]1C(=O)N[C@@H](C)C(=O)NC2(CC2)C(=O)N[C@@H]([C@@H](C)CC)C(=O)O[C@H]1C)[C@@H](C)CC)[C@@H](C)CC.O=C(O)C(F)(F)F [Example 5] | – | 8 | 4 | 8 | 4 | – |
| CC[C@H](C)[C@H](NC(=O)[C@H](N)Cc1ccc(-c2ccccc2)cc1)C(=O)N[C@@H](CO)C(=O)N[C@H](CCC(N)=O)C(=O)N[C@@H](C(=O)N[C@H](C(=O)N[C@@H](CO)C(=O)N[C@H]1C(=O)N[C@@H](C)C(=O)N[C@@]2(C[C@H]2CC(F)F)C(=O)N[C@@H]([C@@H](C)CC)C(=O)O[C@H]1C)[C@@H](C)CC)[C@@H](C)CC [Example 13] | 8 | 8 | 8 | 8 | 8 | – |
